Calls of active or inactive are those of the source.
Columns and labels:
[1] = biological target: Paired box protein Pax-8 (Homo sapiens, UniProt Q06710); experiment: inhibitors of PAX8-driven TPO luciferase reporter, dose response, RMG-I cells, cherry-pick (AID 687027); format: functional, cell-based;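 also: luciferase reporter driven by Pax8 target thyroperoxidase promoter measured by SteadyGlo luminescence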
[2] = Shn3 3'UTR reporter inhibitors, dose response, cell-based, Clone20 osteoblasts, firefly luciferase, cherry-picked (AID 624132); format: functional;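 also: firefly luciferase luminescence from reporter carrying the Shn3 3'UTR in osteoblasts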
[3] = biological target: T1, Protein skinhead-1 (Caenorhabditis elegans, UniProt P34707); format: functional
T1 sequence (P34707 whole entry): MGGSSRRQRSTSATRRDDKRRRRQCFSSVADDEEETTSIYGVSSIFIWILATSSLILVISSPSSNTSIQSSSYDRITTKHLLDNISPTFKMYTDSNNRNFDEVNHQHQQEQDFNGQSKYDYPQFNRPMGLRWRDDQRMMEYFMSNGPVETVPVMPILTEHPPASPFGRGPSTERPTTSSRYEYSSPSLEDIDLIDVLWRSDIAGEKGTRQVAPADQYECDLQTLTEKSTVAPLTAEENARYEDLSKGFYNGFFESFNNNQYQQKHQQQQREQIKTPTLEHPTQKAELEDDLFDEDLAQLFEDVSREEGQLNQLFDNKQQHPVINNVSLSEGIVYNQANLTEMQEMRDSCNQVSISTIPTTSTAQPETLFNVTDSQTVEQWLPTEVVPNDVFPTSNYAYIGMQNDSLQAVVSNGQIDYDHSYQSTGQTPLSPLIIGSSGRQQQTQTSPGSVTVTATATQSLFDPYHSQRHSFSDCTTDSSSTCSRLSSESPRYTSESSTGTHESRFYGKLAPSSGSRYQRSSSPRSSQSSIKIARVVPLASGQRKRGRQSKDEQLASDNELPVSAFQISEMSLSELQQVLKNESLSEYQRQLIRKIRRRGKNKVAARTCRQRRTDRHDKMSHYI

[4] = control 3'UTR Renilla luciferase suppression, dose response, counter-screen for Shn3 inhibitor project, cell-based, Clone20-Shn3RL, cherry-picked (AID 624133); format: functional
[5] = tested on: HEK293; experiment: inhibitors of LMP1-driven NF-kB reporter, dose response, cell-based, HEK293, luciferase, cherry-pick (AID 588343); format: functional; settings: Homo sapiens
[6] = biological target: T2, DNA repair and recombination protein RAD54-like (Homo sapiens, UniProt Q92698); experiment: inhibitors of human RAD54 branch migration, confirmation, biochemical, fluorescence, cherry-picked samples, dose series (AID 651657); format: functional
T2 sequence (Q92698 whole entry): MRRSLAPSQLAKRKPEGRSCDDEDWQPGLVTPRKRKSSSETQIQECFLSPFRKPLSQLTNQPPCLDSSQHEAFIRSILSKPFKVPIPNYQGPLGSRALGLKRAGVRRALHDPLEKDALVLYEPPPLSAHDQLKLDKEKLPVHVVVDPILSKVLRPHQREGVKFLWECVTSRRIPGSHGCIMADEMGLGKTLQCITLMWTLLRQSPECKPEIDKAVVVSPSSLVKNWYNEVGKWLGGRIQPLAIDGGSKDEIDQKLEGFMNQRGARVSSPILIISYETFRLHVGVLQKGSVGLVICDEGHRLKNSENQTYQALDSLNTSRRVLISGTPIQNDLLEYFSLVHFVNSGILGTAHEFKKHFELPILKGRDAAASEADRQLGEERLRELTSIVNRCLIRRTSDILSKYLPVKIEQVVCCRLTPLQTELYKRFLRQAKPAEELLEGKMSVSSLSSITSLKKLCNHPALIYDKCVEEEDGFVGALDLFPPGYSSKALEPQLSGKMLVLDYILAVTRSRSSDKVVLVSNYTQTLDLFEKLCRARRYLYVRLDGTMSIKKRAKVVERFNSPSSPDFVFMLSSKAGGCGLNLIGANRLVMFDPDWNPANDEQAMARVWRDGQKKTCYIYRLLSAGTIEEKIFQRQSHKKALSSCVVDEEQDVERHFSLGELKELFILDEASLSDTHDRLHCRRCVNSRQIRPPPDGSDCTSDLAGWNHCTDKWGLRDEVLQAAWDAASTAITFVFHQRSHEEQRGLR

[7] = biological target: T3, DNA repair protein RAD52 homolog (Homo sapiens, UniProt P43351); format: functional, biochemical
T3 sequence (P43351 whole entry): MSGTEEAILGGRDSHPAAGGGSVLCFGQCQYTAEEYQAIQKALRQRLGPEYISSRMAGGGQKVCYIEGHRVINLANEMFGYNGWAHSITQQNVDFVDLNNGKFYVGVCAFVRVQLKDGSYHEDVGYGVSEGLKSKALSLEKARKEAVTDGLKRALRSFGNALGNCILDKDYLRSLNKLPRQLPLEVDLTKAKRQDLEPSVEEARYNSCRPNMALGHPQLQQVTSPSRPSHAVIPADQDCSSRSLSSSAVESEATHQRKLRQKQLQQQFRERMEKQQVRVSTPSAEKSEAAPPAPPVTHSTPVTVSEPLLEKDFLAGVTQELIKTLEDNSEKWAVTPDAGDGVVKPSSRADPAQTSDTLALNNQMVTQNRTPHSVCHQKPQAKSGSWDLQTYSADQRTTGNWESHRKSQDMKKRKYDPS

[8] = cells; format: functional, cell-based
[9] = inhibitors of intracellular T. cruzi replication, confirmation, NIH3T3 host cells, beta-gal luminescence (AID 2044); format: functional, cell-based;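 also: intracellular parasites grown in NIH/3T3 mouse fibroblasts as host cells; luminescent beta-galactosidase reporter signal from transgenic T. cruzi replicating inside host cells; inhibitors lower the luminescence signal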
[10] = biological target: T4, Nuclear receptor subfamily 0 group B member 1 (Homo sapiens, UniProt P51843); format: functional, cell-based;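 also: HEK293T cells transfected with SF-1 and DAX-1 plus StAR promoter luciferase reporter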
T4 sequence (P51843 whole entry): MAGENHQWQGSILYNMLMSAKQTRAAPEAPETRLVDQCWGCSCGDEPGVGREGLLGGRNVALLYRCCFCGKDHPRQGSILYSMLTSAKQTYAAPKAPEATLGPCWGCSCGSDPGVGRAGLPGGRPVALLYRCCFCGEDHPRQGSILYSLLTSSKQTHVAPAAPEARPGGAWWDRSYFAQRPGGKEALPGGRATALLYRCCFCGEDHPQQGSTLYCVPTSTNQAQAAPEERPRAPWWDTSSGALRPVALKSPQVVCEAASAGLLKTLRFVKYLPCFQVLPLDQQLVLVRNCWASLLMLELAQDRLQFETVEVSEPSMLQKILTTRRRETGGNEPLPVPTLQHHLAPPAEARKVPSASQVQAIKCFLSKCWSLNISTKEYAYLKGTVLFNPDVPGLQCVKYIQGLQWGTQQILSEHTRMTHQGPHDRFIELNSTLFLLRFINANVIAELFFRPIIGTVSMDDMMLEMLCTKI

[11] = cytotoxicity toward NIH3T3 fibroblasts, dose response, counter-screen, cell-based, ATP luminescence, mouse fibroblasts (AID 2010); format: functional;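 also: cells exposed to compound for about 90 hours before reading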
[12] = biological target: T5, fMet-Leu-Phe receptor (Homo sapiens, UniProt P21462); experiment: FPR ligands, dose response (AID 519); format: functional
T5 sequence (P21462 whole entry): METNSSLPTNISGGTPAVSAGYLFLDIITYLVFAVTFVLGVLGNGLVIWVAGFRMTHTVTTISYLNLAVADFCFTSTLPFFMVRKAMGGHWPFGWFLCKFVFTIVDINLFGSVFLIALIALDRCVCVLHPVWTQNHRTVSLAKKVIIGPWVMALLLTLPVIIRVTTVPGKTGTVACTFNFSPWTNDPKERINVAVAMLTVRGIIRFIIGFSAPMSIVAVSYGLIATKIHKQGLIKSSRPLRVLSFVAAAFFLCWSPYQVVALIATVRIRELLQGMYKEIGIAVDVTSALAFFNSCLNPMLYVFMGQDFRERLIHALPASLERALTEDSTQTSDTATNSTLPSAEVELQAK

[13] = biological target: T6, Cytochrome P450 1A2 (Homo sapiens, UniProt P05177);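 also: PubChem cytochrome P450 panel assay, CYP1A2 panel member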
T6 sequence (P05177 whole entry): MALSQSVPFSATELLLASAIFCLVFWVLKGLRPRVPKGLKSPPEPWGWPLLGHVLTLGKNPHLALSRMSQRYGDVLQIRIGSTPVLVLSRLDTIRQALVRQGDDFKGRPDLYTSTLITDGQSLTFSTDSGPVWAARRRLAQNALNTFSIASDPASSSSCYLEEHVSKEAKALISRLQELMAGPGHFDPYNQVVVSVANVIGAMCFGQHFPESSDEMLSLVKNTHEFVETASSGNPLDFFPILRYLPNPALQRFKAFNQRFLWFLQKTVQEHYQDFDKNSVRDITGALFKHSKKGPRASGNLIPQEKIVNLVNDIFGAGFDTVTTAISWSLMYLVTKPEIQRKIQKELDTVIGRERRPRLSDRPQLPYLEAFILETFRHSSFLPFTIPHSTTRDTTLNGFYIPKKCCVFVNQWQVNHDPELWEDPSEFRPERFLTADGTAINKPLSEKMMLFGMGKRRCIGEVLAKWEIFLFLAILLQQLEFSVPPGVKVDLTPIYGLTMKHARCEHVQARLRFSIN

[14] = biological target: Beta-galactosidase (Escherichia coli, UniProt Q8VNN2); experiment: Dose response counterscreen for EBI2 assay utilizing the enzyme, b-galactosidase.; format: functional
[15] = NIH-3T3 fibroblast cytotoxicity, dose response, cytotoxicity control, cell-based, fluorescence, Alamar Blue, secondary assay (AID 2327); format: functional;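 also: NIH-3T3 mouse fibroblasts cultured with fluconazole at 8 µg/mL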
[16] = C. albicans growth with fluconazole, confirmation, fluorescence, retest (AID 2467); format: functional, cell-based
[17] = biological target: Dual specificity tyrosine-phosphorylation-regulated kinase 1A (Rattus norvegicus, UniProt Q63470); format: biochemical, Homo sapiens
[18] = inhibitors of HIV Env-driven cell fusion, dose response, cherry-pick (AID 652057); format: functional, cell-based
[19] = inhibitors of clade B AD8 Env fusion, dose response, cell-based, cherry-pick (AID 652062); format: functional;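 also: luciferase signal from cell-cell fusion driven by HIV-1 clade B AD8 Env; potency is for inhibitors of fusion seen as a drop in luminescence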
[20] = off-target signal loss in HeLa-CEM21 co-culture – HeLa F-luc CTL cells, cherry-picked, counter-screen for HIV-1 Env fusion inhibitor project, dose response (AID 652040); format: functional, cell-based;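 also: potency for signal decrease marking cytotoxic or nonspecific inhibition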
[21] = ZM109 Env clade C HIV-1 fusion inhibitors, dose response, HeLa effector, CEM target cells, luciferase, cherry-pick (AID 652058); format: functional, cell-based
[22] = tested on: HEK293; experiment: cells; settings: Homo sapiens
[23] = CEM21 lymphoblast cell cytotoxicity, dose response, cytotoxicity control for viral fusion inhibitor project, CellTiter-Glo luminescence, cherry-picked (AID 652042); format: functional, cell-based;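 also: potency for signal decrease meaning cytotoxicity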
[24] = tested on: HEK293; experiment: cells; settings: Homo sapiens; remark: listed apart in the source
[25] = biological target: Luciferin 4-monooxygenase (Photinus pyralis, UniProt P08659); experiment: firefly luciferase enzyme inhibitors, dose response, biochemical, luminescence (AID 1891)
[26] = Luminescence Cell-Based Dose Confirmation HTS to Identify Inhibitors of Platelet Dense Granule Release. [Related pubchem assays: 1663 (Primary HTS), 1678 (Summary of Project)]; format: functional

Chain of Beta-galactosidase (Q8VNN2 whole entry): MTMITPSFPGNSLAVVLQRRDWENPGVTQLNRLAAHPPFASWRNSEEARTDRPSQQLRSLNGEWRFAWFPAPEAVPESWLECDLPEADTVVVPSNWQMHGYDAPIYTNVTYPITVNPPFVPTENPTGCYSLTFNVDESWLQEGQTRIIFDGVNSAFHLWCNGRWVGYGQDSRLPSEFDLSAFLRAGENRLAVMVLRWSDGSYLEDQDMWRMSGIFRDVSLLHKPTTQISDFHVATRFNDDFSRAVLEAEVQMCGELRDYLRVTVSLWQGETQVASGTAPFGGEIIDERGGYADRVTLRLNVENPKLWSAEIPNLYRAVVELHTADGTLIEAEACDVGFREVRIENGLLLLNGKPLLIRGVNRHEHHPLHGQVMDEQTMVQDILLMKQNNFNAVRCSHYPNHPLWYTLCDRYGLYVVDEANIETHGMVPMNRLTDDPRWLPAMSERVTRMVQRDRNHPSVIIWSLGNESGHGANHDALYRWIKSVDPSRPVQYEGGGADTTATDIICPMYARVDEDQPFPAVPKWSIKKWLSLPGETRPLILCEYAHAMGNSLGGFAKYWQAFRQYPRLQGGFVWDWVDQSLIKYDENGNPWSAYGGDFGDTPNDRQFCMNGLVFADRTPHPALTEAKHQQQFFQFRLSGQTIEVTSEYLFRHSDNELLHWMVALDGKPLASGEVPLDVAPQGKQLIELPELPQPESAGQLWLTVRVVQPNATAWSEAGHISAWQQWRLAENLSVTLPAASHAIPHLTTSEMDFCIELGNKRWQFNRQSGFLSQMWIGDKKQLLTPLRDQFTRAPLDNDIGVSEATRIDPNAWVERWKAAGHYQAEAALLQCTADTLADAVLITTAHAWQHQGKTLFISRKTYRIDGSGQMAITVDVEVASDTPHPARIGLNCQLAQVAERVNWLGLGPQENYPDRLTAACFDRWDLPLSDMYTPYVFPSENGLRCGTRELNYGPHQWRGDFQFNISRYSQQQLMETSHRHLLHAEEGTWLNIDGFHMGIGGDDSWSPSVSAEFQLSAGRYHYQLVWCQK
Chain of Paired box protein Pax-8 (Q06710 whole entry): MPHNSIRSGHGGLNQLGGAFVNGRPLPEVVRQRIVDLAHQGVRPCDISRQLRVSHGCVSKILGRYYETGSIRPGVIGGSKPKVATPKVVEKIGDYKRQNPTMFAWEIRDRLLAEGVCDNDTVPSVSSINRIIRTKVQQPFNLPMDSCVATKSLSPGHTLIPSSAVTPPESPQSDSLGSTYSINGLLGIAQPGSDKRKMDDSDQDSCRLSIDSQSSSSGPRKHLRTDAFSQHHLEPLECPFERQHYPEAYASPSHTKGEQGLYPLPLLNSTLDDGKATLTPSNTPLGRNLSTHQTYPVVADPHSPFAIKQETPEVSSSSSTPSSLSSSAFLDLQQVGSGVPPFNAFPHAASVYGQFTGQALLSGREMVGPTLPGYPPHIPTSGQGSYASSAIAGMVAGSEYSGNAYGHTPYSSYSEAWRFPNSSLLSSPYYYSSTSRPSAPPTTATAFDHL
Chain of Luciferin 4-monooxygenase (P08659 whole entry): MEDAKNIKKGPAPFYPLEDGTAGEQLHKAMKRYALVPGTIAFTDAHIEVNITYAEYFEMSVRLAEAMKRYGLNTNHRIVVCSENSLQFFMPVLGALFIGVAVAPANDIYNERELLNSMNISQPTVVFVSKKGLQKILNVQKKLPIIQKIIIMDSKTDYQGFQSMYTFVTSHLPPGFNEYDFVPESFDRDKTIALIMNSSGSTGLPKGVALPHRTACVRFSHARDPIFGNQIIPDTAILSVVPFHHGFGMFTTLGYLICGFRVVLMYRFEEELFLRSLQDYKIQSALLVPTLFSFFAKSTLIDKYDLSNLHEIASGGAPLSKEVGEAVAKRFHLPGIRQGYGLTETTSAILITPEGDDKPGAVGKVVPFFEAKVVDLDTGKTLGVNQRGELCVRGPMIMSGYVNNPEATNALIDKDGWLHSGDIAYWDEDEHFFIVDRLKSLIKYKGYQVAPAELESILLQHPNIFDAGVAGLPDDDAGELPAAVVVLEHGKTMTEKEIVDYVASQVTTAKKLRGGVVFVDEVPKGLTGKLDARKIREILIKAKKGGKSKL

COc1ccccc1-n1cc([C@@H]2C[C@H]3CN(c4ccccc4)C(=O)[C@]34CCCN24)cn1
AC50 [1]: 5.21 µM (active)
AC50 [2]: 1.46 µM (active)
IC50 [3]: > 100 µM (inactive)
AC50 [4]: 1.8 µM (active)
AC50 [5]: 19 µM (active)

CCN1CCN(C(S)=Nc2ccc3nc(N4CCN(C)CC4)cc(C)c3c2)CC1
AC50 [6]: 91.2 µM (active)
AC50 [7]: 4.49 µM (active)

Clc1ccc(-c2csc(-c3ccncc3)n2)cc1
IC50 [3]: 4.45 µM (active)

O=C(CN1CCCCC1)n1c2ccccc2c2ccccc21
AC50 [6]: 12.1 µM (active)
AC50 [7]: 5.64 µM (active)

O=C(CCS(=O)(=O)c1ccccc1)N(CCCN1CCOCC1)c1nc2ccc(F)cc2s1
IC50 [8]: > 67.5 µM (inactive)
EC50 [9]: 2.06 µM (active)
IC50 [10]: > 67.5 µM (inactive)
EC50 [11]: 6.18 µM (active)

Cc1ccc(/C=C/c2ccc3cccc(O)c3n2)s1
IC50 [3]: > 100 µM (inactive)

COc1cccc(OC)c1/C(O)=C(\C#N)c1nc2ccccc2[nH]1
Ki [12]: > 66.7 µM (inactive)
AC50 [13]: 12.6 µM (inconclusive)

N[C@@H](Cc1ccc(O)c(I)c1)C(=O)O [IOTYROSINE]
Ki [12]: > 66.7 µM (inactive)

O=C(COc1ccc(Br)cc1)N1CCN(C2CCCC2)CC1
IC50 [14]: > 80 µM (inactive)

CC(C)(C)c1nnc(N/N=C/c2ccc(Br)cc2)n(N)c1=O
IC50 [14]: > 80 µM (inactive)

O=C(c1ccc(-n2cnnn2)cc1)N1CCN(C(c2ccccc2)c2ccccc2)CC1
IC50 [14]: > 80 µM (inactive)

c1ccc2sc(NN=C3CCCCCC3)nc2c1
IC50 [8]: > 67.5 µM (inactive)
EC50 [15]: > 150 µM (inactive)
EC50 [16]: > 38 µM (not active)
AC50 [17]: 3.89 µM (active)
IC50 [10]: > 0.278 µM (active)

NC(=O)C1CCCN(C(=O)NC2CCCCC2)C1 (stereo not drawn)
IC50 [3]: > 100 µM (inactive)

COc1ccc(S(=O)(=O)N2CCCCC2)cc1NC(=O)Cc1sc(C)nc1-c1ccc(F)cc1
AC50 [18]: 0.863 µM (active)
AC50 [19]: 6.25 µM (active)
AC50 [20]: 2.18 µM (active)
AC50 [21]: 2.59 µM (active)

COc1cccc(Nc2nc(C(N)CCc3ccccc3)cs2)n1 (stereo not drawn)
EC50 [22]: > 59.6 µM (inactive)
AC50 [18]: 1.96 µM (active)
AC50 [19]: 3.36 µM (active)
AC50 [20]: 3.37 µM (active)
AC50 [23]: 17.1 µM (active)
EC50 [24]: > 59.6 µM (inactive)
AC50 [21]: 3.98 µM (active)

O=C(/C=C\Nc1ccc2c(c1)OCO2)c1cccs1
EC50 [25]: 0.912 µM (active)
IC50 [8]: > 67.5 µM (inactive)
IC50 [10]: > 67.5 µM (inactive)
EC50 [26]: 6.14 µM (active)

COCCN1C(=O)C(O)=C(C(=O)c2cccs2)C1c1ccccc1 (stereo not drawn)
Ki [12]: > 66.7 µM (inactive)

CCN(CC(O)c1cccc(O)c1)C(=O)C12CC3CC(CC(C3)C1)C2 (stereo not drawn)
AC50 [18]: 0.33 µM (active)
AC50 [19]: 3 µM (active)
AC50 [20]: 0.619 µM (active)
AC50 [23]: 46.4 µM (active)
AC50 [21]: 0.415 µM (active)
